Assay [1] concerns T1, Nuclear Extract from HeLa Cells.
T1 construct: 25 ng/μl Nuclear Extract from HeLa Cells: Prepared by high salt extraction of HeLa nuclei (human cervical cancer cell line)
Kind of assay: HeLa nuclear extract HDAC activity inhibition. In kind it is biochemical, human. As to the method: (§1) In Vitro Inhibitory Activity of Histone Deacetylase: Human Isoforms HDAC1, 2, 3, 4, 5, 6, 7, 8, 9, 10 and 11 and HeLa Cell Line Nuclear Extract (IC50 Data)
(§2) All HDAC assays were performed using acetylated AMC-labeled peptide substrate: • Substrate for isoforms HDAC1, 2, 3, 6, 10, 11 and HeLa nuclear extract assays: Acetylated fluorogenic peptide from p53 residues 379-382 (RHKKAc). • Substrate for isoforms HDAC 4, 5, 7, 9: Fluorogenic Boc-L-Lys(ε-trifluoroacetyl)-AMC. • Substrate for HDAC8 assays: Acetylated fluorogenic peptide from p53 residues 379-382 (RHKAcKAc).
[…] The reactions were carried out in a 96-well microplate for fluorometry in a 50 μl reaction volume. After the deacetylation reaction, Fluor-de-Lys-Developer (BioMol Cat. # KI-105) was added to each well to digest the deacetylated substrate, thus producing the fluorescent signal. The reaction was allowed to develop for 45 minutes at 30° C. with 5% CO2; then the fluorescent signal was measured with an excitation wavelength at 360 nm and an emission wavelength at 460 nm in a microplate-reading fluorometer (GeminiXS; Molecular Devices, Sunnyvale, Calif.). A curve of Deacetylated Standard (Biomol, Cat. # KI-142; made from 100 μM with 1:2 dilution and 10-doses, 6 μl) allowed the conversion of fluorescent signal into micromoles of deacetylated product. All experiments were performed in triplicate. IC50 was calculated by fitting the experimental data to a dose-response curve. DMSO was used as negative control; Trichostatin A (Biomol Cat. # GR-309) was used as positive control inhibitor.

For the next assay, the target named is T2, Human HDAC5 (Homo sapiens, UniProt Q9UQL6).
T2 construct: Full length with Nterminal GST tag, MW=150 kDa; GST (N); purchased BioMol, Hamburg, Germany; host or cells: baculovirus / Sf9 cells
T2 sequence (Q9UQL6 1-1123 isoform Q9UQL6-3): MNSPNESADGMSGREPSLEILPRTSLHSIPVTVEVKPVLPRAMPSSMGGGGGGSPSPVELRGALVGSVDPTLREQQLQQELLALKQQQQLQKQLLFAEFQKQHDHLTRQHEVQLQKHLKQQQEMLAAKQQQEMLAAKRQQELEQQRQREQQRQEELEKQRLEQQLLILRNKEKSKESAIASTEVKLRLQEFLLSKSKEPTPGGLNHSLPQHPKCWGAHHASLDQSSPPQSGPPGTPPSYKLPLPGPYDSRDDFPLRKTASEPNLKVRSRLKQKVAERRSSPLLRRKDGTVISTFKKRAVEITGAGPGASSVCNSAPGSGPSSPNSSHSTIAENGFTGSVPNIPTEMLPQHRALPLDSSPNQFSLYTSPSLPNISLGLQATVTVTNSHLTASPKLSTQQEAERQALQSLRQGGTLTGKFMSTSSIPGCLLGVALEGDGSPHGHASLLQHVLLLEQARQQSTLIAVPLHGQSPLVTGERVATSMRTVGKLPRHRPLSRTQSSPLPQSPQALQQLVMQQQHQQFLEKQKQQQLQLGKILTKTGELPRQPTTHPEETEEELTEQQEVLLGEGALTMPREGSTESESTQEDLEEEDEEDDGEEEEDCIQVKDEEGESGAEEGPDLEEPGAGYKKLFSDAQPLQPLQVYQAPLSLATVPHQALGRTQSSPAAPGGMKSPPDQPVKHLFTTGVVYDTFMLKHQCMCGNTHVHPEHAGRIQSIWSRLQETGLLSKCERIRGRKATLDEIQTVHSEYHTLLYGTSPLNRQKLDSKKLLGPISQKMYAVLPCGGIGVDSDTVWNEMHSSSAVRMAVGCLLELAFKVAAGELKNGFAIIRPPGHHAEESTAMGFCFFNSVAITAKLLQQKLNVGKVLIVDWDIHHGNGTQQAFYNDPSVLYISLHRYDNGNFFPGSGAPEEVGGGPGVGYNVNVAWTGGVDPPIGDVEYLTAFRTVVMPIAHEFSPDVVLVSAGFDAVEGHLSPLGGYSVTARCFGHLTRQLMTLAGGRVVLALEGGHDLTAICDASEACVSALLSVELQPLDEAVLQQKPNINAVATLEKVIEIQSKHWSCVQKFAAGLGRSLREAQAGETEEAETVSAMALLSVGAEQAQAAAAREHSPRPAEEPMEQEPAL
Kind of assay: In vitro HDAC5 inhibition, fluorogenic substrate. In kind it is biochemical. As to conditions: read-out: IC50 (μM) HDAC-5. As to the method:
as §1, §2
(§3) 50 μM of substrate peptide (see ‘substrate peptides’ section above) and an optimal concentration of the corresponding enzyme (see ‘enzymes’ section above) in the assay buffer and 1% final concentration of DMSO were incubated in the presence of gradient concentrations of inhibitors (10-dose IC50 mode with 3-fold serial dilution) at 30° C. for 2 h. The reactions were carried out in a 96-well microplate for fluorometry in a 50 μl reaction volume. After the deacetylation reaction, Fluor-de-Lys-Developer (BioMol Cat. # KI-105) was added to each well to digest the deacetylated substrate, thus producing the fluorescent signal. The reaction was allowed to develop for 45 minutes at 30° C. with 5% CO2; then the fluorescent signal was measured with an excitation wavelength at 360 nm and an emission wavelength at 460 nm in a microplate-reading fluorometer (GeminiXS; Molecular Devices, Sunnyvale, Calif.). A curve of Deacetylated Standard (Biomol, Cat. # KI-142; made from 100 μM with 1:2 dilution and 10-doses, 6 μl) allowed the conversion of fluorescent signal into micromoles of deacetylated product. All experiments were performed in triplicate. IC50 was calculated by fitting the experimental data to a dose-response curve. DMSO was used as negative control; Trichostatin A (Biomol Cat. # GR-309) was used as positive control inhibitor.

The target of another assay is T3, Human HDAC3/NcoR2 (Homo sapiens, UniProt O15379).
T3 construct: Complex of human HDAC3, full length with C-terminal His tag, MW=49.7 kDa; His (C); purchased BioMol SE-507; host or cells: baculovirus expression system
T3 sequence (O15379 whole entry): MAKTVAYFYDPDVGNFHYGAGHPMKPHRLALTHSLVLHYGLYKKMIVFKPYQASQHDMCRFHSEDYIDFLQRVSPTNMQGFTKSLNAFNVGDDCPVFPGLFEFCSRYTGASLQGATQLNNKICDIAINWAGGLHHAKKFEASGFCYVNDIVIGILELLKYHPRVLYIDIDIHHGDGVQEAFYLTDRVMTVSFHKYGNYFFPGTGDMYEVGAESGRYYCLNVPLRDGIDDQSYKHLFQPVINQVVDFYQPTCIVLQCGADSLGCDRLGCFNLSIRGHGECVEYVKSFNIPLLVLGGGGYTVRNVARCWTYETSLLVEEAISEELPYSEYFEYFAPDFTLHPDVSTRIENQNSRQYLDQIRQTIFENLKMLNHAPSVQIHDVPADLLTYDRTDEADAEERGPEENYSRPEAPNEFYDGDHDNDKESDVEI
T3 sequence (Q9Y618 395-489 partner limits assumed): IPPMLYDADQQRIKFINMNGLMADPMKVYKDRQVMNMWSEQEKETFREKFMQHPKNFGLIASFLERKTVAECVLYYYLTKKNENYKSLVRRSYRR
The experiment in a line: In vitro HDAC3 inhibition, fluorogenic peptide substrate. In kind it is biochemical. As to conditions: read-out: IC50 (μM) HDAC-3. As to the method: as §1, §2, §3

Another assay addresses T4, Human HDAC1 (Homo sapiens, UniProt Q13547).
T4 construct: Full length with C-terminal GST tag, MW=79.9 kDa; GST (C); purchased BioMol SE-456; host or cells: baculovirus / Sf9 cells
Kind of assay: In vitro HDAC1 inhibition, fluorogenic peptide substrate. In kind it is biochemical. The conditions noted are these: read-out: IC50 (μM) HDAC-1. As to the method: as §1, §2, §3

Another assay has as its target T5, Human HDAC11 (Homo sapiens, UniProt Q96DB2).
T5 construct: GST (N); purchased BioMol SE-560; host or cells: baculovirus expression system
T5 sequence (Q96DB2 1-347): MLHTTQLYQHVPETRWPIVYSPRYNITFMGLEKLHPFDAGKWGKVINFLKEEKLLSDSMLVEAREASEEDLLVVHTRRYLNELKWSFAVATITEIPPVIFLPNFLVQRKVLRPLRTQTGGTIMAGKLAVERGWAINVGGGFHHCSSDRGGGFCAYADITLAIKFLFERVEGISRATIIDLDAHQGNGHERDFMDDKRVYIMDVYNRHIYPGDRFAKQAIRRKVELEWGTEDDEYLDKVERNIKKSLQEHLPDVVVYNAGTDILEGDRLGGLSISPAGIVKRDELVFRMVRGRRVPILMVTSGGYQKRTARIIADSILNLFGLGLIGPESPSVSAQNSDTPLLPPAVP
The experiment in a line: In vitro HDAC11 inhibition, fluorogenic peptide substrate. In kind it is biochemical. The conditions noted are these: read-out: IC50 (μM) HDAC-11. As to the method: as §1, §2, §3

The next assay deals with T6, Human HDAC7 (Homo sapiens, UniProt Q8WUI4).
T6 construct: Amino acids 518-end with N-terminal GST tag, MW=78 kDa; GST (N); purchased BioMol, Hamburg, Germany; host or cells: baculovirus expression system
T6 sequence (Q8WUI4 518-952 limits assumed): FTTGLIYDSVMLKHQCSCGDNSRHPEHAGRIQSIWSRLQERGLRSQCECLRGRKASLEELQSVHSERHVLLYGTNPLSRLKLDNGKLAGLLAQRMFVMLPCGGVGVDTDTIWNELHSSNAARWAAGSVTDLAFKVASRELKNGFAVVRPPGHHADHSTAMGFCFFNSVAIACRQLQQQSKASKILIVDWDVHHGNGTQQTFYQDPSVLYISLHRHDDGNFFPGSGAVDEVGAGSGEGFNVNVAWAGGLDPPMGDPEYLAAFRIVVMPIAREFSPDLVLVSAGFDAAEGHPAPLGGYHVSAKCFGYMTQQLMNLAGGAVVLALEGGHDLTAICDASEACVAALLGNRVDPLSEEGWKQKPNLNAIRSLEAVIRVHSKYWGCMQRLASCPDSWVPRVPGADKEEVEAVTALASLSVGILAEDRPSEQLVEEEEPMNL
Kind of assay: In vitro HDAC7 inhibition, fluorogenic substrate. In kind it is biochemical. The conditions noted are these: read-out: IC50 (μM) HDAC-7. On the procedure:
as §1, §2, §3

Each structure is given as a SMILES string.

We go through nine molecules from patent US20160122340A1, “HISTONE DEACETYLASE INHIBITORS BASED ON DERIVATIVES OF TRICYCLIC POLYHYDROACRIDINE AND ANALOGS POSSESSING FUSED SATURATED FIVE-AND-SEVEN-MEMBERED RINGS” (QUIMATRYX, S.L., priority 2013, published 2016).

As a reminder, the IC50 is the midpoint of a concentration-inhibition curve.

T4 sequence (Q13547 whole entry): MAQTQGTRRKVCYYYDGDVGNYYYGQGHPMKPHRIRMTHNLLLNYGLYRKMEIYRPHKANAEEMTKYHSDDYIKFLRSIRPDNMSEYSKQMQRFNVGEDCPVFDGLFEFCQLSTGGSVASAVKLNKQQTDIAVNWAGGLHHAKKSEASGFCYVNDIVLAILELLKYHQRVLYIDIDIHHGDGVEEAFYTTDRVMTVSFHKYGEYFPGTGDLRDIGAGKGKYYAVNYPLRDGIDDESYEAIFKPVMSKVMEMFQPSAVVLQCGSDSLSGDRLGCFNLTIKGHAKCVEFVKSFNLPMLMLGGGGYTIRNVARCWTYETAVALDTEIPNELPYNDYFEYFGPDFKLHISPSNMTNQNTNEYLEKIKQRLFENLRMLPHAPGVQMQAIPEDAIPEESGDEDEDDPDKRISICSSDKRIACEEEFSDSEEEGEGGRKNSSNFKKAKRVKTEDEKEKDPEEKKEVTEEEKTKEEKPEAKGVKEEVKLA

As for `O=C(CCCCCNC(=O)c1c2c(nc3ccccc13)CCCC2)NO` [Example 10, N-[6-(hydroxyamino)-6-oxohexyl]-1,2,3,4-tetrahydroacridine-9-carboxamide], the IC50 was 0.85 µM in assay [1]; > 5 µM at Human HDAC5; > 5 µM at Human HDAC3/NcoR2; > 5 µM on Human HDAC1; > 5 µM on Human HDAC11; > 5 µM at Human HDAC7.

As to `O=C(CCCCCCNc1c2c(nc3cnccc13)CCCC2)NO` [Example 8, N-hydroxy-7-[(6,7,8,9-tetrahydrobenzo[b][1,7]naphthyridin-5-yl)amino]heptanamide], the IC50 in assay [1] is 0.095 µM; at Human HDAC5, > 5 µM; at Human HDAC3/NcoR2, 1.88 µM; on Human HDAC1, 1.12 µM; on Human HDAC11, 0.6 µM; on Human HDAC7, > 5 µM.

`O=C(CCCCCCNc1c2c(nc3ncccc13)CCCC2)NO` [Example 7, N-hydroxy-7-[(6,7,8,9-tetrahydrobenzo[b][1,8]naphthyridin-5-yl)amino]heptanamide]: the IC50 in assay [1] was 0.12 µM; on Human HDAC5 it was > 5 µM; on Human HDAC3/NcoR2 it was 2.44 µM; on Human HDAC1, 1.77 µM; at Human HDAC11, 0.69 µM; at Human HDAC7, > 5 µM.

With `O=C(CCCCCNc1c2c(nc3ccccc13)CCCC2)NO` [Example 1, N-hydroxy-6-[(1,2,3,4-tetrahydroacridin-9-yl)amino]hexanamide], the IC50 amounted to 0.066 µM in assay [1]; 2.14 µM at Human HDAC5; 2.84 µM at Human HDAC3/NcoR2; 2.99 µM on Human HDAC1; 2.21 µM on Human HDAC11; 4.55 µM at Human HDAC7.

`O=C(CCCCCCNC(=O)c1c2c(nc3ccccc13)CCCC2)NO` [Example 11, N-[7-(hydroxyamino)-7-oxoheptyl]-1,2,3,4-tetrahydroacridine-9-carboxamide]: the IC50 in assay [1] was 0.42 µM; at Human HDAC5, 4.24 µM; at Human HDAC3/NcoR2, 3.62 µM; on Human HDAC1 it was 2.95 µM; on Human HDAC11 it was 4.1 µM; on Human HDAC7, > 5 µM.

For `COc1cccc2c(NCCCCCCC(=O)NO)c3c(nc12)CCCC3` [Example 5, N-hydroxy-7-[(5-methoxy-1,2,3,4-tetrahydroacridin-9-yl)amino]heptanamide], the IC50 in assay [1] is 0.033 µM; on Human HDAC5, > 5 µM; at Human HDAC3/NcoR2 it was 0.66 µM; on Human HDAC1 it was 0.9 µM; on Human HDAC11 it was 1.04 µM; on Human HDAC7 it was > 5 µM.

Take `O=C(CCCCCCNc1c2c(nc3ccccc13)CCC2)NO` [Example 3, 7-[(2,3-dihydro-1H-cyclopenta[b]quinolin-9-yl)amino]-N-hydroxyheptanamide]: the IC50 in assay [1] is 0.019 µM; on Human HDAC5 it was > 5 µM; on Human HDAC3/NcoR2, 0.36 µM; on Human HDAC1 it was 0.27 µM; at Human HDAC11, 0.44 µM; on Human HDAC7, > 5 µM.

With `O=C(CCCCCCNc1c2c(nc3ccccc13)CCCCC2)NO` [Example 4, N-hydroxy-7-[(7,8,9,10-tetrahydro-6H-cyclohepta[b]quinolin-11-yl)amino]heptanamide], the IC50 in assay [1] was 0.038 µM; on Human HDAC5, > 5 µM; on Human HDAC3/NcoR2, 0.74 µM; on Human HDAC1, 0.84 µM; on Human HDAC11, 1.22 µM; on Human HDAC7, > 5 µM.

On to `O=C(CCCCCCNc1c2c(nc3ccccc13)CCCC2)NO` [Example 2, N-hydroxy-7-[(1,2,3,4-tetrahydroacridin-9-yl)amino]heptanamide], for which the IC50 in assay [1] came to 0.023 µM; on Human HDAC5 it was 0.44 µM; at Human HDAC3/NcoR2 it was 0.42 µM; on Human HDAC1, 0.36 µM; at Human HDAC11, 0.59 µM; at Human HDAC7, 0.77 µM.
